Reference: PubChem BioAssay (NCI)
“And” between values parts separate entries of the source, which are not always exact repeats. Equal values may be shown once.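 Growth conditions: 96-well plates. Treatment: test compound, 48 hours, 5 concentrations. Analysis: linear interpolation between bracketing concentrations; unreached endpoints set to highest concentration. Here, GI50 denotes the concentration required for 50% inhibition of growth. TGI denotes the concentration required for complete inhibition of growth.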

Legend:
Test in all cases: inhibition of tumour cell growth, NCI panel, 48 h
EKVX NSCLC = system: EKVX NSCLC
HCT-116 colon = system: HCT-116 colon
NCI/ADR-RES ovarian = system: NCI/ADR-RES ovarian
RXF 393 renal = system: RXF 393 renal
SK-OV-3 ovarian = system: SK-OV-3 ovarian
SNB-75 CNS = system: SNB-75 CNS
T-47D breast = system: T-47D breast
U251 CNS = system: U251 CNS
LXFL 529 NSCLC = system: LXFL 529 NSCLC
M19-MEL melanoma = system: M19-MEL melanoma

Compound	GI50 (EKVX NSCLC) [µM]	TGI (EKVX NSCLC)	GI50 (HCT-116 colon) [µM]	TGI (HCT-116 colon) [µM]	GI50 (NCI/ADR-RES ovarian) [µM]	TGI (NCI/ADR-RES ovarian)	GI50 (RXF 393 renal) [µM]	TGI (RXF 393 renal)	GI50 (SK-OV-3 ovarian) [µM]	TGI (SK-OV-3 ovarian) [µM]	GI50 (SNB-75 CNS) [µM]	TGI (SNB-75 CNS)	GI50 (T-47D breast) [µM]	TGI (T-47D breast) [µM]	GI50 (U251 CNS) [µM]	TGI (U251 CNS) [µM]	TGI (LXFL 529 NSCLC) [µM]	TGI (M19-MEL melanoma) [µM]
CCOC(=O)Cn1c(C)c(/C=N/NC(=O)c2cc3c(ccc4ccccc43)o2)c2ccccc21	0.662	42.5 µM	0.338	1.46	0.259	3.08 µM	0.319	1.08 µM	0.804	9.44	0.244	1.42 µM	0.653	> 27.8	0.426	4.17		
CO[C@H]1C[C@@H]2CC[C@@H](C)[C@@](O)(O2)C(=O)C(=O)N2CCCC[C@H]2C(=O)O[C@H]([C@H](C)C[C@@H]2CC[C@@H](OP(C)(C)=O)[C@H](OC)C2)CC(=O)[C@H](C)/C=C(\C)[C@@H](O)[C@@H](OC)C(=O)[C@H](C)C[C@H](C)/C=C/C=C/C=C/1C	< 0.01	18.5 µM	11.8	24.8	11	30.8 µM	< 0.01	16.4 µM	0.557	21.7	< 0.01	15.7 µM	< 0.01	23	0.0208	19.2		
O=C1c2ccccc2-c2n[nH]c3cccc1c23	7.03	> 100 µM and 85.1 µM	6.15	> 100	30.5	59.2 µM and > 100 µM	5.89	> 100 µM and 56.9 µM	7.39	> 100		97.6 µM and > 100 µM	45.1	> 100	16.6	> 100		
COc1ccc(-c2cc(-c3cn[nH]c3-c3ccccn3)ccn2)cc1	> 25	> 25 µM	> 25	> 25	> 25	> 25 µM	> 25	> 25 µM	> 25	> 25	> 25	> 25 µM	> 25	> 25	> 25	> 25		
Cc1c(C(=O)/C=C/c2ccccc2Cl)[n+](=O)c2ccccc2n1[O-]		31.1 µM		22.5						35.7		30.5 µM				27.4	20	29.1
COc1cc(C(=O)C/C(CCC(=O)Nc2ccc(Cl)cc2Cl)=N/NC(=O)C(N)=O)ccc1O		> 100 µM		> 100						> 100		43.7 µM				> 100	> 100	> 100
CC(=O)Nc1ccccc1-c1cnc2ccccc2n1		> 100 µM		> 100						> 100		> 100 µM				> 100	> 100	> 100
Nc1ccc2c(c1)CC1c3ccccc3C(C2)c2ccccc21				> 100				> 100 µM		> 100		> 100 µM				> 100	> 100	> 100
CCOC(=O)c1ccc(Nc2sc(C(=O)c3cccc([N+](=O)[O-])c3)c(N)c2C#N)cc1	0.469	> 75.8 µM	0.0505	4.17	0.0521	25.7 µM	0.167	24.8 µM	0.181	18.6	0.116	0.65 µM	0.141	> 68.5	0.0607	3.86		
COc1ccc2c(c1)sc1nc(-c3ccccc3)c(-c3ccc(O)c(OC)c3)n12	74.7	> 100 µM	4.95	> 100	4.55	> 100 µM	4.9	29.8 µM	19.6	> 100	11.1	> 100 µM	83.1	> 100	5.28	> 100		
O=C(OCC1OC(OC(=O)c2cc(O)c(O)c(OC(=O)c3cc(O)c(O)c(O)c3)c2)C(OC(=O)c2cc(O)c(O)c(OC(=O)c3cc(O)c(O)c(O)c3)c2)C(OC(=O)c2cc(O)c(O)c(OC(=O)c3cc(O)c(O)c(O)c3)c2)C1OC(=O)c1cc(O)c(O)c(OC(=O)c2cc(O)c(O)c(O)c2)c1)c1cc(O)c(O)c(OC(=O)c2cc(O)c(O)c(O)c2)c1 (centres undefined)	13.5	> 50 µM	21.9	> 50	19.2	> 50 µM	30.3	> 50 µM	17.3	> 50	38.8	> 50 µM	13	> 50	14.6	> 50		
CCOC(=O)C(Cc1ccccc1)NC(=O)OC(C)(C)C (centres undefined)				> 100						> 100		> 100 µM				> 100	> 100	> 100
COc1cc2ccnc3c2c(c1OC)-c1ccc(=O)ccc1-3	29.8	99 µM	5.25	34.5	17.4	57.6 µM	18.7	77 µM	41.5	> 100	25.9	80.1 µM	27.6	65.5	27.6	96.9		
CO/N=C(/COc1c(-c2ccccc2)oc2ccccc2c1=O)c1ccc(OC)cc1	> 100	> 100 µM	> 100	> 100	76.2	> 100 µM	> 100	> 100 µM	> 100	> 100	58.7	> 100 µM	26.9	> 100	> 100	> 100		
COc1cc(Cn2ccc3c2-c2oncc2CC3)cc(OC)c1	4.3	56.1 µM	3.49	26.6	1.95	7.24 µM	5.2	60 µM	4.79	> 100	1.9	7.48 µM	3.69	60.2	4.43	69.3		
Nc1nc(N)c2c(ccc3nccc32)[nH]1	2.22	> 100 µM	0.934	> 71.2	6.61	> 100 µM	3.09	17.8 µM	18.4	> 81.5	17.2	89.4 µM	14.9	> 80	3.22	> 69.5		
